Data: patent US8691982B2, “Pyrazolo[1,5-a]-1,3,5-triazine derivatives, preparation thereof, and therapeutic use thereof” (Centre National de la Recherche Scientifique, priority 2009, dated 2014)
Structures can show the parent of a compound that is named as a salt.

Experiments:
[1] = tested on: SH-SY5Y human neuroblastoma cells; assay: SH-SY5Y cell viability (MTS reduction); format: cell-based; details: SH-SY5Y cell line, cell viability by MTS
Protocol: A Cell Titer 96® kit containing the MTS reagent was purchased from Promega (Madison, Wis., USA). The protease inhibitor cocktail came from Roche and the fetal calf serum (FCS) came from Invitrogen. The reagents not listed came from Sigma, unless otherwise indicated.
The SH-SY5Y human neuroblastoma cell line was grown in a DMEM medium with L-glutamine from Invitrogen (Cergy Pontoise, France), antibiotics and 10% by volume of FCS from Invitrogen. The general culture conditions were a 5% CO2 atmosphere and a temperature of 37° C. The culture plates and other disposable plastic tools were supplied by Corning (Corning, N.Y., USA). The treatments with the compounds of the invention were carried out on cultures in exponential growth over time, and indicated concentrations. The control experiments were carried out also using suitable dilutions of DMSO.
The cell viability was determined by measuring the reduction of 3-(4,5-dimethylthiazol-2-yl)-5-(3-carboxymethoxyphenyl)-2-(4-sulfophenyl)-2H-tetrazolium (MTS).

CDK2/cyclin A = target: T1, CDK2/cyclin A (Homo sapiens, UniProt P24941); assay: CDK2/cyclin A kinase assay; format: biochemical; details: 15 μM ATP, 30° C., histone H1 substrate
T1 construct: host or cells: insect cells
Protocol: (§1) Buffer C: 60 mM β-glycerophosphate, 15 mM p-nitrophenyl phosphate, 25 mM Mops (pH 7.2), 5 mM EGTA, 15 mM MgCl2, 1 mM DTT, 1 mM sodium vanadate, 1 mM phenyl phosphate, 10 μg leupeptin/ml, 10 μg aprotinin/ml and 100 μM benzamidine.
(§2) Controls were performed with appropriate dilutions of dimethyl sulfoxide.
(§3) ATP (3000 Ci/mmol; 10 mCi/ml) in a final volume of 30 μl. After incubation for 30 minutes at 30° C., aliquotes of 25 μl of the supernatant were spotted onto Whatman P81 phosphocellulose paper filters and, 20 seconds later, the filters were washed five times (for at least five minutes each time) in a solution of 10 ml of phosphoric acid/liter of water. The wet filters were subjected to counting in the presence of an ACS scintillation fluid from Amersham. CDK2/cyclin A (human, recombinant, expressed in insect cells) was assayed as described for CDK1/cyclin B. CDK5/p25 was reconstituted by mixing equal amounts of recombinant mammalian CDK5 and p25 expressed in E. coli as a GST (glutathione-S-transferase) fusion protein and purified by affinity chromatography on glutathione-agarose (p25 is a truncated version of p35, the 35 kDa CDK5 activator). […] DYRK1A (human, recombinant, expressed in E. coli as a GST fusion protein) was purified on glutathione-agarose, assayed as described for CDK1/cyclin B with myelin basic protein (1 mg/ml) as substrate.

CDK9/cyclin T = target: T2, CDK9/cyclin T (Homo sapiens, UniProt P50750); assay: CDK9/cyclin T kinase assay; format: biochemical; details: 15 μM ATP, 30° C., pRB fragment substrate
T2 construct: host or cells: insect cells

DYRK1A = DYRK1A (Homo sapiens, UniProt Q13627); assay: DYRK1A kinase assay; format: biochemical; details: 15 μM ATP, 30° C., myelin basic protein substrate
Protocol: (§4) The blank values were subtracted and the activities calculated as μmoles of phosphate incorporated per 10 minutes of incubation. […] Controls were performed with appropriate dilutions of dimethyl sulfoxide.
as §3

[2] = tested on: Human chronic lymphoid leukemia (B-CLL) lymphocytes; assay: B-CLL cell apoptosis (annexin V / propidium iodide, flow cytometry); format: cell-based; details: B-CLL cells from patients
Protocol: The CLL cells were isolated from heparinized blood of untreated patients after informed consent.
The mononuclear cells were isolated by centrifugation on a Lymphosep density gradient (Biowest). […] When the percentage of CD19+/CD5+ cells was less than 90%, the B lymphocytes were enriched using the kit II for B-cell enrichment by immunomagnetic depletion of the monocytes, NK cells, granulocytes and T lymphocytes (Miltenyi Biotech).
After incubation, the B-CLL cells were harvested, washed in PBS and resuspended in 100 μl of 1× binding buffer containing FITC-conjugated annexin V and propidium iodide (Beckman Coulter Apoptosis Detection Kit). After incubation for 10 min on ice, the cells were analyzed by flow cytometry and the percentage of cells undergoing apoptosis was determined.

CDK1/cyclin B = CDK1/cyclin B kinase assay; format: biochemical, starfish (Marthasterias glacialis); details: 15 μM ATP, 30° C., histone H1 substrate
Protocol: Homogenization buffers: 60 mM β-glycerophosphate, 15 mM p-nitrophenyl phosphate, 25 mM Mops (pH 7.2), 15 mM EGTA, 15 mM MgCl2, 1 mM DTT, 1 mM sodium vanadate, 1 mM NaF, 1 mM phenyl phosphate, 10 μg leupeptin/ml, 10 μg aprotinin/ml, 10 μg soybean trypsin inhibitor/ml and 100 μM benzamidine.
as §1, §2, §3

GSK-3α/β = GSK-3α/β kinase assay; format: biochemical, pig; details: 15 μM ATP, 30° C., buffer A, GS-1 substrate
CDK5/p25 = CDK5/p25 (Homo sapiens, UniProt Q00535); assay: CDK5/p25 kinase assay; format: biochemical, mammalian; details: 15 μM ATP, 30° C., histone H1 substrate
Protocol: as §1, §2, §3

CK1δ/ε = CK1δ/ε kinase assay; format: biochemical, pig; details: 15 μM ATP, 30° C., CK1-specific peptide substrate
Protocol: as §4, §3

the four kinases assayed = assay: Tests on the four kinases assayed (comparison of enantiomers 34 and 31); format: biochemical; details: 34 versus 31
Protocol: The kinases were assayed in buffer A or buffer C, at 30° C., at a final ATP concentration of 15 μM. The blank values were subtracted and the activities calculated as μmoles of phosphate incorporated per 10 minutes of incubation. The activities are usually expressed as % (percentage) of maximum activity, i.e. in the absence of inhibitors. Controls were performed with appropriate dilutions of dimethyl sulfoxide.
[…]. J. Biochem. 1997, 243, 527-536. The kinase activity was assayed in buffer C, with 1 mg of histone H1/ml, in the presence of 15 μM of [γ-^33P] ATP (3000 Ci/mmol; 10 mCi/ml) in a final volume of 30 μl. After incubation for 30 minutes at 30° C., aliquotes of 25 μl of the supernatant were spotted onto Whatman P81 phosphocellulose paper filters and, 20 seconds later, the filters were washed five times (for at least five minutes each time) in a solution of 10 ml of phosphoric acid/liter of water. The wet filters were subjected to counting in the presence of an ACS scintillation fluid from Amersham. […]

T2 sequence (P50750 whole entry, the tested form may be a part): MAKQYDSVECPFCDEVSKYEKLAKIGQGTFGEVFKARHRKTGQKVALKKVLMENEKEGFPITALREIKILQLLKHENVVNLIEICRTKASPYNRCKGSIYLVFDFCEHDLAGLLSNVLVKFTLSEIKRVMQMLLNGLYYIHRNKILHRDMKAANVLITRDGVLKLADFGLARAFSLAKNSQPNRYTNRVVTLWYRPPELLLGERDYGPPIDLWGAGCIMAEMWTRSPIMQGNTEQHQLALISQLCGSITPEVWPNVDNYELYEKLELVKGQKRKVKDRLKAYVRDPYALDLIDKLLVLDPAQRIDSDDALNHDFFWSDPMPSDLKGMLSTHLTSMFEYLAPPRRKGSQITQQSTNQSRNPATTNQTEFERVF
T2 sequence (O60563 whole entry partner, the tested form may be a part): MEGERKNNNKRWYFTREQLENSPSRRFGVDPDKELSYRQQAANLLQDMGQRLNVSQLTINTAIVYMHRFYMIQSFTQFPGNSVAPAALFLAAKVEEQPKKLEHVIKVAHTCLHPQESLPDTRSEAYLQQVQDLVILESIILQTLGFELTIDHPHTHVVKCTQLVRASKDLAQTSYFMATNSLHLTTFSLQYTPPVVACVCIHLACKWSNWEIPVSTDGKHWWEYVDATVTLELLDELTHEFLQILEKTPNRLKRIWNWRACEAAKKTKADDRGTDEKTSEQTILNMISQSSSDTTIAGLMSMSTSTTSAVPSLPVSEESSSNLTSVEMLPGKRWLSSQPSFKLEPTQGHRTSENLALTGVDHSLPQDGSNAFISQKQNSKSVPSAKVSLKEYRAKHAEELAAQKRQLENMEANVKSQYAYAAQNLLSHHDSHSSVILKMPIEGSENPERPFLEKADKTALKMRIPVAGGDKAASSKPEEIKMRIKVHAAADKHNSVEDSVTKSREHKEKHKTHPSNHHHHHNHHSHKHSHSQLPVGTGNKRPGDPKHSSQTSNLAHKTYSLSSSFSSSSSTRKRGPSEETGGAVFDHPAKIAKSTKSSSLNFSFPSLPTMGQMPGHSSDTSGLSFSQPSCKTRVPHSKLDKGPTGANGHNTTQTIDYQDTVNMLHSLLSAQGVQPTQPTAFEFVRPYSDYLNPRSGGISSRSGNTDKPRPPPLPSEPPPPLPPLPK
CDK5/p25, sequence (Q00535 whole entry, species assumed): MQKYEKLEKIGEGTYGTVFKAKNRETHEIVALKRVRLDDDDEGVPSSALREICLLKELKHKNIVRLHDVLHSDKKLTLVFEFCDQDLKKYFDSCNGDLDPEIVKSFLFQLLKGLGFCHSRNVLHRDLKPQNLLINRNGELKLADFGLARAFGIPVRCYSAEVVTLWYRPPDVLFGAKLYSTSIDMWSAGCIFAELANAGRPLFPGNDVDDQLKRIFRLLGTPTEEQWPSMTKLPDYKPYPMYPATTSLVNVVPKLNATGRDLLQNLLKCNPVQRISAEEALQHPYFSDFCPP
CDK5/p25, sequence (Q15078 99-307 partner limits assumed, species assumed): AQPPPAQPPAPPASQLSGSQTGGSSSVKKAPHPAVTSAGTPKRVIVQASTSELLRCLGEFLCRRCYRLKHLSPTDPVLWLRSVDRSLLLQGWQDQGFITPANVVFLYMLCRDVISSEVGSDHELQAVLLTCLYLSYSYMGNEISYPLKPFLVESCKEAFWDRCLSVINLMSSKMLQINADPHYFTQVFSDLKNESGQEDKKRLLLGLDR

IC50 ([1]; Homo sapiens) [nM]	IC50 (CDK2/cyclin A) [nM]	IC50 (CDK9/cyclin T) [nM]	IC50 (DYRK1A) [nM]	IC50 ([2]; Homo sapiens) [nM]	IC50 (CDK1/cyclin B) [nM]	IC50 (GSK-3α/β) [nM]	IC50 (CDK5/p25) [nM]	IC50 (CK1δ/ε) [nM]	IC50 [1] [nM]	IC50 [2] [nM]	SMILES	activity compared with enantiomer on the four kinases assayed (the four kinases assayed)
	21	31	2200		16	3100	18	130	59	32	CC[C@H](CO)Nc1nc(NCc2ccc(-c3ccccn3)cc2)n2ncc(C(C)C)c2n1 [Compound 3, Fumarate salt of (R)-2-(1-hydroxybut-2-ylamino)-8-isopropyl-4-[4-(pyridin-2-yl)benzylamino]pyrazolo[1,5-a]-1,3,5-triazine]	
< 30			420			530	10	100			CCc1cnn2c(NCc3ccc(-c4ccccn4)cc3)nc(NC[C@H](O)CO)nc12 [Compound 34, (S)-2-(1,2-dihydroxypropan-3-ylamino)-8-ethyl-4-[4-(pyridin-2-yl)benzylamino]pyrazolo[1,5-a]-1,3,5-triazine]	more active than the derivative 31
44	28	73	1800	32	23	4000	40	210			CC[C@H](CO)Nc1nc(NCc2ccc(-c3ccccn3)cc2)n2ncc(C(C)C)c2n1 [Compound 2, (R)-2-(1-hydroxybut-2-ylamino)-8-isopropyl-4-[4-(pyridin-2-yl)benzylamino]pyrazolo[1,5-a]-1,3,5-triazine]	

The next lines start with the molecule.

SMILES	IC50 ([1]; Homo sapiens) [nM]	IC50 (CDK2/cyclin A) [nM]	IC50 (CDK9/cyclin T) [nM]	IC50 (DYRK1A) [nM]	IC50 ([2]; Homo sapiens) [nM]	IC50 (CDK1/cyclin B) [nM]	IC50 (GSK-3α/β) [nM]	IC50 (CDK5/p25) [nM]	IC50 (CK1δ/ε) [nM]	IC50 [1] [nM]	IC50 [2] [nM]	activity compared with enantiomer on the four kinases assayed (the four kinases assayed)
CC[C@H](CO)Nc1nc(NCc2ccc(-c3ccccc3)cc2)n2ncc(C(C)C)c2n1 [Compound 1, (R)-2-(1-hydroxybut-2-ylamino)-8-isopropyl-4-(4-phenylbenzylamino)pyrazolo[1,5-a]-1,3,5-triazine]	430	220	93	2200	189	180	> 10000	180	210			
CC[C@H](CO)Nc1nc(NCc2ccccc2)n2ncc(C(C)C)c2n1 [N-&-N1, reference compound]	2600			1300	1420	90	11000		1200			
